Test results from ChEMBL document CHEMBL1133411, “The design, synthesis and activity of non-ATP competitive inhibitors of pp60(c-src) tyrosine kinase. Part 2: hydroxyindole derivatives” (Bioorg Med Chem Lett, 2000).
Active and inactive are the calls of the source.

Experiments:
[1] = molecular target: Proto-oncogene tyrosine-protein kinase Src (Homo sapiens) (UniProt P12931); test: Percent inhibition against human recombinant p60 c-Src tyrosine kinase at 500 uM
[2] = molecular target: Proto-oncogene tyrosine-protein kinase Src (Homo sapiens) (UniProt P12931); test: Percent inhibition determined against human recombinant p60 c-Src tyrosine kinase at 100 uM
[3] = molecular target: Proto-oncogene tyrosine-protein kinase Src (Homo sapiens) (UniProt P12931); test: Percent inhibition of human recombinant p60 c-Src tyrosine kinase at 100 uM (inactive)

Proto-oncogene tyrosine-protein kinase Src (Homo sapiens), sequence (P12931 2-536 limits assumed): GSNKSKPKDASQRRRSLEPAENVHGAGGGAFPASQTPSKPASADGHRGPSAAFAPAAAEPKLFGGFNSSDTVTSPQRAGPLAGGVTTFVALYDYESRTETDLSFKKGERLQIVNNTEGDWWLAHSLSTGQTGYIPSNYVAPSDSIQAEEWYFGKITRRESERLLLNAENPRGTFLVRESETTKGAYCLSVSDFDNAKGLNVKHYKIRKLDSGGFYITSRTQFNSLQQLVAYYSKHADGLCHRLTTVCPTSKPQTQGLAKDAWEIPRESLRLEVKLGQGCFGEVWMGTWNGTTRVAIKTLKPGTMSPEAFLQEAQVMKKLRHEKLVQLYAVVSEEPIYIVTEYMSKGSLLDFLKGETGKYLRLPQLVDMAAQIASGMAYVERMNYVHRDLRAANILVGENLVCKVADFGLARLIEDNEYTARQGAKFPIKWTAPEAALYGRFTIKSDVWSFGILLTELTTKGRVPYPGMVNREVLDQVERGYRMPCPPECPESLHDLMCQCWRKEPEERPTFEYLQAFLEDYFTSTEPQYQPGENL

| inhibition [2] [%] | Structure (SMILES) | further results |
| --- | --- | --- |
| – | COC(=O)c1cc2cc(O)ccc2[nH]1 | inhibition [1]: 40% |
| 13 | C[C@H](NC(=O)c1cc2cc(O)ccc2[nH]1)c1cccc(O)c1 | – |
| 36 | O=C(NCc1ccc(O)cc1)c1cc2ccccc2[nH]1 | – |
| 21 | COc1cccc(NC(=O)c2cc3cc(O)ccc3[nH]2)c1 | – |
| 28 | CCOC(=O)c1cc2cc(O)c(O)cc2[nH]1 | – |
| 54 | O=C(NCc1ccc(O)cc1)c1cc2cc(O)ccc2[nH]1 | – |
| 18 | COc1ccc(CNC(=O)c2cc3cc(O)ccc3[nH]2)cc1 | – |
| – | O=C(O)c1ccc(CNC(=O)c2cc3cc(O)ccc3[nH]2)cc1 | inhibition [3]: inactive |
| 43 | O=C(Nc1ccccc1O)c1cc2cc(O)ccc2[nH]1 | – |
| 7 | O=C(O)Cc1ccc(NC(=O)c2cc3cc(O)ccc3[nH]2)cc1 | – |
| 21 | O=C(Nc1cccc(F)c1)c1cc2cc(O)ccc2[nH]1 | – |
| 45 | O=C(Nc1ccc(O)cc1)c1cc2cc(O)ccc2[nH]1 | – |
| 32 | COC(=O)Cc1ccc(NC(=O)c2cc3cc(O)ccc3[nH]2)cc1 | – |
| 24 | O=C(NCc1ccccc1O)c1cc2cc(O)ccc2[nH]1 | – |
| 21 | COc1ccccc1CNC(=O)c1cc2cc(O)ccc2[nH]1 | – |
| 3 | COc1ccccc1NC(=O)c1cc2cc(O)ccc2[nH]1 | – |
| 15 | C[C@@H](NC(=O)c1cc2cc(O)ccc2[nH]1)c1cccc(O)c1 | – |
| 57 | O=C(NCc1cccc(F)c1)c1cc2cc(O)ccc2[nH]1 | – |
| 30 | O=C(Nc1cccc(O)c1)c1cc2cc(O)ccc2[nH]1 | – |
| 74 | O=C(NCc1cccc(O)c1)c1cc2cc(O)ccc2[nH]1 | – |
| 11 | COC(=O)c1ccc(CNC(=O)c2cc3cc(O)ccc3[nH]2)cc1 | – |
